pIC50, pKi: −log10 of the molar value. In brackets after ≈: the same amount, converted by molar mass. Where two headings read alike, the source gives them in different places.
How the values were obtained:
[1] = test system: CYP isozymes (IC50s averaged over the isozymes); test: CYP Enzymatic Inhibition Assay in human liver microsomes
[2] = test system: drug-sensitive cell lines of Table 2 (EFM-19, MDA-MB-453, T-47D, ZR-75-1, NCI-H441, OVTOKO, NCI-H1838); test: Cell Line Growth Retardation Assay, sensitive cohort; type: cell-based, human; conditions: for pIC50: Homo sapiens, geometric mean over sensitive cohort, 6 days growth, read-out: AvgSensIC50; for Ther Window: average IC50 drug-resistant group divided by average IC50 drug-sensitive group
Description: (§1) Cells were seeded at densities of 1,000-5,000 cells per well in 48-well tissue culture plates. After a 24 hours rest period, cells were treated with compound at 10 μM, 2 μM, 0.4 μM, 0.08 μM, 0.016 μM, and 0.0032 μM. A group of cells were treated with the vehicle in which the compound was prepared and served as a control. The cells were grown in the presence of compounds for 6 days and were counted on day 0 and day 6. A11 cell counting was performed using a Synentec Cellavista plate imager. […] Growth inhibition was calculated as a ratio of cell population doublings in the presence of compound versus the absence of compound. […] IC50 values for each compound (see Table 3; reported in μM) were calculated by fitting curves to data points from each dose-response assay using the Proc NLIN function in SAS for Windows version 9.2 (SAS Institute, Inc.).
(§2) These sensitive and resistant cohorts were interrogated for response to each compound, and IC50s were calculated for each cell line using the same technique described above. Average IC50s for the sensitive and resistant cohorts were calculated as geometric means of the group. “Therapeutic Window” for each compound was calculated by dividing the average IC50 for the drug-resistant group by the average IC50 for the drug-sensitive group.

hERG potassium channels = hERG potassium channels (Homo sapiens (Human), UniProt Q12809); test: hERG Inhibition Assay (QPatch automated patch clamp, CHO cells); conditions: percent of control current
Sequence of hERG potassium channels (Q12809 whole entry): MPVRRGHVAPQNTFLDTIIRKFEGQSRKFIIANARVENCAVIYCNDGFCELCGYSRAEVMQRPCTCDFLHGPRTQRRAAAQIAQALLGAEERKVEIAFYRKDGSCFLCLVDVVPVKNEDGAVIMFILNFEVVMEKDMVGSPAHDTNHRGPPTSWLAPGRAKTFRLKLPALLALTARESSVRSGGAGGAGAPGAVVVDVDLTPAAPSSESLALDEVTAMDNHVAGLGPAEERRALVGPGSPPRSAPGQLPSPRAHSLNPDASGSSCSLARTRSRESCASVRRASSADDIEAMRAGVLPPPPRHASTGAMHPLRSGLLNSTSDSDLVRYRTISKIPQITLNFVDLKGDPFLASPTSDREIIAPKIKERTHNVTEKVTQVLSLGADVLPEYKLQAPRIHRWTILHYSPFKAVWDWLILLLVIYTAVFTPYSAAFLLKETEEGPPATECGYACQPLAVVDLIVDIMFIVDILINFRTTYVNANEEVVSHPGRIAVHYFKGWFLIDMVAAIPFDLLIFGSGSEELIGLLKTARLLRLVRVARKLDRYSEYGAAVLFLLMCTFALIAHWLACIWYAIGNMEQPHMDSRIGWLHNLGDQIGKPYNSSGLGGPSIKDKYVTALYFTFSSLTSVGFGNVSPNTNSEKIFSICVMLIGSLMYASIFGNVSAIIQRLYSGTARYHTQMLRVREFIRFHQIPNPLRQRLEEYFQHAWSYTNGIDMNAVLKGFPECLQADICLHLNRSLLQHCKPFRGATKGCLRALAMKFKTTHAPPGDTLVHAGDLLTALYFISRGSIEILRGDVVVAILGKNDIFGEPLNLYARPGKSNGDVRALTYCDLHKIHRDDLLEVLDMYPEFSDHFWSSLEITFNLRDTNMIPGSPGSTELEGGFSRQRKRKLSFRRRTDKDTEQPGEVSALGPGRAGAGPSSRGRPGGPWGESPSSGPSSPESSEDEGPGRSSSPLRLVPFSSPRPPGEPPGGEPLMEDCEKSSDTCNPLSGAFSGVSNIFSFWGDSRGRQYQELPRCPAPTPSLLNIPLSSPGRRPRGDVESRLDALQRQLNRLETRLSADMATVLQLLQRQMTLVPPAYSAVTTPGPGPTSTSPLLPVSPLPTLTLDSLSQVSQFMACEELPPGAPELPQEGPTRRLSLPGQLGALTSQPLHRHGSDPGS

[3] = Measurement of Compound Metabolic Stability in hepatocytes
[4] = test system: drug-resistant cell lines of Table 2 (NCI-H1437, OV207, HCC1806, NCI-H2172); test: Cell Line Growth Retardation Assay, resistant cohort; type: cell-based, human; conditions: Homo sapiens, […], geometric mean over resistant cohort; 6 days growth; read-out: AvgResIC50
Description: as §1, §2

CDK6 = CDK6 (Homo sapiens (Human), UniProt Q00534); test: Cdk4 and 6 Enzymatic Inhibition Assay (radiometric 33PanQinase, Ki determination); type: biochemical
Sequence of CDK6 (Q00534 whole entry): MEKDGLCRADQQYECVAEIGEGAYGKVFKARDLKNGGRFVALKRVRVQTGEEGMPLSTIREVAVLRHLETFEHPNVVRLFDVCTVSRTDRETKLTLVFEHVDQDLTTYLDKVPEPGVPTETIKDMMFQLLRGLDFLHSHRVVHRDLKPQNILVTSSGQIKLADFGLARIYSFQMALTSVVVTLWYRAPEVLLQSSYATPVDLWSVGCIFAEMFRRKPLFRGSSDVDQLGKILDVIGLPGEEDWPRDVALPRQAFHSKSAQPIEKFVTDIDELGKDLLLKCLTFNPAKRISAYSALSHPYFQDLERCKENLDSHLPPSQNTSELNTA
Sequence of CDK6 (P24385 whole entry partner): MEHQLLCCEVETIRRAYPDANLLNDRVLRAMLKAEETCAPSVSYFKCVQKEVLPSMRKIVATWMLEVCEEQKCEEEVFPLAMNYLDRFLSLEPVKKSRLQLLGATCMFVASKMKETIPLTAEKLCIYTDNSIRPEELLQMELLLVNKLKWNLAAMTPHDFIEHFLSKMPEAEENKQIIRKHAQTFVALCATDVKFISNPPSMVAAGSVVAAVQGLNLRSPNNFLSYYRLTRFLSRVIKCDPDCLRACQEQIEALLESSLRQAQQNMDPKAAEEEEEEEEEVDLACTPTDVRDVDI
Description: (§3) 10 distinct concentrations were prepared, with a dilution endpoint of 6×10^−9 M in 100% DMSO. 100% DMSO was used as a control. 10 μL from each of the serial dilutions were aliquoted into separate wells of a 96-well plate and 90 μL of water were added to each of those wells. The plate was shaken thoroughly, and 5 μL from each of the plate's wells were transferred into wells of the assay plate. The final volume of wells in the assay plate was 50 μL. A11 compounds were tested at 10 assay concentrations in the range from 2×10^−6 M to 6×10^−11 M. The final DMSO concentration in the wells of the assay plate was 1% in all cases.
(§4) A radiometric protein kinase assay (33PanQinase® Activity Assay) was used for measuring the kinase activity of six protein kinases. A11 kinase assays were performed in 96-well FlashPlates™ from PerkinElmer (Boston, MA, USA). The assay for all protein kinases contained 70 mM HEPES-NaOH pH 7.5, 3 mM MgCl2, 3 mM MnCl2, 3 μM Na-orthovanadate, 1.2 mM DTT, 50 μg/mL PEG20000, ATP [γ-33P]-ATP (approx. 9×1005 cpm per well), protein kinase and substrate. The reaction cocktails were incubated at 30° C. for 60 minutes. The reaction was stopped with 50 μL of 2% (v/v) H3PO4, and plates were aspirated and washed two times with 200 μL 0.9% (w/v) NaCl. Incorporation of ^33Pi was determined with a microplate scintillation counter (Microbeta, Wallac).

CDK4 = CDK4 (Homo sapiens (Human), UniProt P11802); test: as above; type: biochemical
Sequence of CDK4 (P11802 whole entry): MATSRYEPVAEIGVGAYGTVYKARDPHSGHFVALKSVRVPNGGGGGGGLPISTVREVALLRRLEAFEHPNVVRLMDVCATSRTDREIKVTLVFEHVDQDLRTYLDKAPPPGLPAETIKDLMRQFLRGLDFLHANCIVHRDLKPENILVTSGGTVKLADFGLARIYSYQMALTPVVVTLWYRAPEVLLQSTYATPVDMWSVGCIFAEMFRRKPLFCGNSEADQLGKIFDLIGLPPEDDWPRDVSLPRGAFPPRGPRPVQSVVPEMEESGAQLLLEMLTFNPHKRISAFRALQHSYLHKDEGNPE
Sequence of CDK4 (P24385 whole entry partner): as the sequence (P24385 whole entry partner) above
Description: as §3, §4

[5] = Caco-2 Assay (Papp A to B); conditions: human, Caco-2, pH 7.4
[6] = Compound Solubility Assay (kinetic solubility); type: physicochemical; conditions: kinetic from dmso stock
Description: The relative kinetic solubility of each compound was determined at both low (1.2) and neutral (7.4) pH. Compounds were prepared at 10 mM stocks. […] Compounds were allowed to shake at room temperature for 24 hours in 50 mM phosphate buffer pH 7.4, or in SGF buffer pH 1.2 at 37° C. for 24 hours.

Structure (SMILES) | IC50 at 10 min [1] | pIC50 [2] | Ther Window [2] | hERG (hERG potassium channels) | half-life at 1 μM [3] | pIC50 [4] | pKi (CDK6) | pKi (CDK4) | Papp A→B at 2 h, 2 μM [5] | solubility kinetic at 24 h ([6]; 50 mM phosphate buffer, pH 7.4, aqueous buffer, read-out: KS7) | solubility kinetic at 24 h ([6]; simulated gastric fluid, kinetic solubility, SGF buffer pH 1.2, 37° C., 24 hours, read-out: KS1)
Cc1nc2c(F)cc(-c3nc(Nc4ccc(CN5CCO[C@](C)(CCNCC(F)F)C5)cn4)ncc3F)cc2n1C(C)C [Compound A6, (R)—N-(5-((2-(2-((2,2-difluoroethyl)amino)ethyl)-2-methylmorpholino)methyl)pyridin-2-yl)-5-fluoro-4-(4-fluoro-1-isopropyl-2-methyl-1H-benzo[d]imidazol-6-yl)pyrimidin-2-amine] | 14600 nM | 7.00 | 10.42 | 32.76% | 0.237 h | 6.00 | 8.27 | 9.08 | 1.12 ×10⁻⁶ cm/s | – | –
CC[C@@]1(CCN(C)C)CN(Cc2ccc(Nc3ncc(F)c(-c4cc(F)c5nc(C)n(C(C)C)c5c4)n3)nc2)CCO1 [Compound A20, (R)—N-(5-((2-(2-(dimethylamino)ethyl)-2-ethylmorpholino)methyl)pyridin-2-yl)-5-fluoro-4-(4-fluoro-1-isopropyl-2-methyl-1H-benzo[d]imidazol-6-yl)pyrimidin-2-amine] | 24800 nM | 7.10 | 12.21 | 32.36% | 1.68 h | 6.00 | 8.43 | 9.26 | 0.07 ×10⁻⁶ cm/s | – | –
Cc1nc2c(F)cc(-c3nc(Nc4ccc(CN5CCO[C@](C)(CCN(C)CC(F)F)C5)cn4)ncc3F)cc2n1C(C)C [Compound A29, (R)—N-(5-((2-(2-((2,2-difluoroethyl)(methyl)amino)ethyl)-2-methylmorpholino)methyl)pyridin-2-yl)-5-fluoro-4-(4-fluoro-1-isopropyl-2-methyl-1H-benzo[d]imidazol-6-yl)pyrimidin-2-amine] | 16400 nM | 6.77 | 5.36 | 25.45% | 0.0973 h | 6.05 | 7.98 | 8.74 | 1.95 ×10⁻⁶ cm/s | – | –
CNCC[C@]1(C)CN(Cc2ccc(Nc3ncc(F)c(-c4cc(F)c5nc(C)n(C(C)C)c5c4)n3)nc2)CCO1 [Compound A5, (R)-5-fluoro-4-(4-fluoro-1-isopropyl-2-methyl-1H-benzo[d]imidazol-6-yl)-N-(5-((2-methyl-2-(2-(methylamino)ethyl)morpholino)methyl)pyridin-2-yl)pyrimidin-2-amine] | – | 6.74 | 5.33 | 14.76% | – | 6.02 | 8.20 | 8.92 | – | – | –
Cc1nc2c(F)cc(-c3nc(Nc4ccc(CN5CCO[C@](C)(CCN6CC(C)(O)C6)C5)cn4)ncc3F)cc2n1C(C)C [Compound A10, (R)-1-(2-(4-((6-((5-fluoro-4-(4-fluoro-1-isopropyl-2-methyl-1H-benzo[d]imidazol-6-yl)pyrimidin-2-yl)amino)pyridin-3-yl)methyl)-2-methylmorpholin-2-yl)ethyl)-3-methylazetidin-3-ol] | – | 7.15 | 14.08 | – | 1.11 h | 6.01 | 8.26 | 9.02 | 0.01 ×10⁻⁶ cm/s | – | –
Cc1nc2c(F)cc(-c3nc(Nc4ccc(CN5CCO[C@](C)(CCN6CC[C@H](F)C6)C5)cn4)ncc3F)cc2n1C(C)C [Compound A14, 5-fluoro-4-(4-fluoro-1-isopropyl-2-methyl-1H-benzo[d]imidazol-6-yl)-N-(5-(((R)-2-(2-((S)-3-fluoropyrrolidin-1-yl)ethyl)-2-methylmorpholino)methyl)pyridin-2-yl)pyrimidin-2-amine] | 16900 nM | 7.10 | 11.53 | 23.34% | 0.178 h | 6.01 | 8.30 | 9.04 | 0.69 ×10⁻⁶ cm/s | – | –
Cc1nc2c(F)cc(-c3nc(Nc4ccc(CN5CCO[C@@]6(CCN(C)C6)C5)cn4)ncc3F)cc2n1C(C)C [Compound A39, (R)-5-fluoro-4-(4-fluoro-1-isopropyl-2-methyl-1H-benzo[d]imidazol-6-yl)-N-(5-((2-methyl-6-oxa-2,9-diazaspiro[4.5]decan-9-yl)methyl)pyridin-2-yl)pyrimidin-2-amine] | – | 6.52 | 3.25 | 14.81% | – | 6.01 | 8.18 | 8.74 | – | – | –
Cc1nc2c(F)cc(-c3nc(Nc4ccc(CN5CCO[C@](C)(CCN6CCC6)C5)cn4)ncc3F)cc2n1C(C)C [Compound A17, (R)—N-(5-((2-(2-(azetidin-1-yl)ethyl)-2-methylmorpholino)methyl)pyridin-2-yl)-5-fluoro-4-(4-fluoro-1-isopropyl-2-methyl-1H-benzo[d]imidazol-6-yl)pyrimidin-2-amine] | 51700 nM | 7.30 | 15.41 | 20.47% | 3.61 h | 6.07 | 8.28 | 8.99 | 0.02 ×10⁻⁶ cm/s | – | –
CC(=O)c1c(C)c2cnc(Nc3ccc(N4CCNCC4)cn3)nc2n(C2CCCC2)c1=O [Palbociclib, reference compound] | 97700 nM | – | 9.37 | – | 0.915 h | – | – | – | 0.27 ×10⁻⁶ cm/s | 29.6 µM (≈ 13.2 µg/mL) | 196 µM (≈ 87.6 µg/mL)
Cc1nc2c(F)cc(-c3nc(Nc4ccc(CN5CCO[C@](C)(CCN6CC(F)C6)C5)cn4)ncc3F)cc2n1C(C)C [Compound A13] | 15200 nM | 7.15 | 10.82 | 23.72% | 0.148 h | 6.15 | 8.32 | 9.04 | 1.02 ×10⁻⁶ cm/s | – | –
Cc1nc2c(F)cc(-c3nc(Nc4ccc(CN5CCO[C@](C)(CCNC(C)(C)C)C5)cn4)ncc3F)cc2n1C(C)C [Compound A7, (R)—N-(5-((2-(2-(tert-butylamino)ethyl)-2-methylmorpholino)methyl)pyridin-2-yl)-5-fluoro-4-(4-fluoro-1-isopropyl-2-methyl-1H-benzo[d]imidazol-6-yl)pyrimidin-2-amine] | – | 6.80 | 5.75 | – | 1.24 h | 6.04 | 8.37 | 9.00 | 0.04 ×10⁻⁶ cm/s | – | –
Cc1nc2c(F)cc(-c3nc(Nc4ccc(CN5CCO[C@](C)(CCN)C5)cn4)ncc3F)cc2n1C(C)C [Compound A21, (R)—N-(5-((2-(2-aminoethyl)-2-methylmorpholino)methyl)pyridin-2-yl)-5-fluoro-4-(4-fluoro-1-isopropyl-2-methyl-1H-benzo[d]imidazol-6-yl)pyrimidin-2-amine] | – | 6.82 | 6.58 | – | 1.61 h | 6.00 | – | – | – | – | –
